Measured values reported in patent US9937151B2, “Carbapenem antibacterials with gram-negative activity” (priority 2010, dated 2018).
Converted amounts (≈) assume the structure as drawn.

Tested on: G(−) bacterial strains
Test: Dilution antimicrobial susceptibility tests (MIC, NCCLS agar dilution / broth dilution)
Assay type: cell-based, Gram-negative organisms
Settings: unit assumed
Procedure, shortened: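 Agar dilution on Mueller-Hinton agar at 10^4 CFU/spot and broth dilution at 5×10^5 CFU/well, per NCCLS M7-A5. Streptococci tested on Mueller-Hinton agar with 5% sheep blood. MIC taken as minimum inhibitory concentration; ATCC control strains run alongside.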

[1] = strain #1 Acinetobacter calcoaceticus
[2] = strain #2 Acinetobacter baumannii, Cf-R, Ci-R
[3] = strain #3 Acinetobacter baumannii, Cf-R, Ci-R, Mp-I
[4] = strain #4 Acinetobacter baumannii, Cf-R, Imp-I, CBPase
[5] = strain #7 Enterobacter aerogenes
[6] = strain #8 Enterobacter cloacae, Cf-R, B+
[7] = strain #9 Enterobacter cloacae, Cf-R
[8] = strain #10 Escherichia coli, Ci-R
[9] = strain #11 Escherichia coli, Ci-R, AmpC
[10] = strain #15 Klebsiella pneumoniae
[11] = strain #16 Moraxella catarrhalis
[12] = strain #21 Providencia rettgeri
[13] = strain #22 Salmonella typhimurium
[14] = strain #25 Shigella dysenteriae
[15] = strain #28 Stenotrophomonas maltophilia
[16] = strain #29 Pseudomonas aeruginosa
[17] = strain #30 Pseudomonas aeruginosa
[18] = strain #31 Pseudomonas aeruginosa, Ofx-R
[19] = strain #32 Pseudomonas aeruginosa, Cf-R
[20] = strain #33 Pseudomonas aeruginosa, Ci-R
[21] = strain #34 Pseudomonas aeruginosa, Gen-R
[22] = strain #35 Pseudomonas aeruginosa, Ip-R
[23] = strain #36 Pseudomonas aeruginosa, Cf-R, Ci-R, Mp-R

| SMILES | MIC [1] [µg/mL] | MIC [2] [µg/mL] | MIC [3] [µg/mL] | MIC [4] [µg/mL] | MIC (strain #5 Citrobacter diversus) [µg/mL] | MIC (strain #6 Citrobacter freundii) [µg/mL] | MIC [5] [µg/mL] | MIC [6] [µg/mL] | MIC [7] [µg/mL] | MIC [8] [µg/mL] | MIC [9] [µg/mL] | MIC (strain #12 Escherichia coli) [µg/mL] | MIC (strain #13 Escherichia coli) [µg/mL] | MIC (strain #14 Klebsiella oxytoca) [µg/mL] | MIC [10] [µg/mL] | MIC [11] [µg/mL] | MIC (strain #17 Morganella Morganii) [µg/mL] | MIC (strain #18 Morganella Morganii) [µg/mL] | MIC (strain #19 Proteus vulgaris) [µg/mL] | MIC (strain #20 Proteus mirabilis) [µg/mL] | other results |
| --- | --- | --- | --- | --- | --- | --- | --- | --- | --- | --- | --- | --- | --- | --- | --- | --- | --- | --- | --- | --- | --- |
| C[C@@H](O)C1C(=O)N2C(C(=O)O)=C(CN3CC[C@H](C(=O)N(C)C)C3)[C@H](C)C12 (stereo partly shown) [Compound 120] | 4 (≈ 10.9 µM) | 8 (≈ 21.9 µM) | 16 (≈ 43.8 µM) | 4 (≈ 10.9 µM) | 0.5 (≈ 1.37 µM) | 0.5 (≈ 1.37 µM) | 2 (≈ 5.47 µM) | 0.5 (≈ 1.37 µM) | 1 (≈ 2.74 µM) | 0.5 (≈ 1.37 µM) | 0.5 (≈ 1.37 µM) | 0.5 (≈ 1.37 µM) | 0.5 (≈ 1.37 µM) | 1 (≈ 2.74 µM) | 1 (≈ 2.74 µM) | 0.016 (≈ 0.0438 µM) | 8 (≈ 21.9 µM) | 4 (≈ 10.9 µM) | 4 (≈ 10.9 µM) | 0.5 (≈ 1.37 µM) | MIC [12]: 2 µg/mL (≈ 5.47 µM); MIC [13]: 0.5 µg/mL (≈ 1.37 µM); MIC (strain #23 Serratia marcescens): 1 µg/mL (≈ 2.74 µM); MIC (strain #24 Serratia marcescens): 2 µg/mL (≈ 5.47 µM); MIC [14]: 0.5 µg/mL (≈ 1.37 µM); MIC (strain #26 Shigella sonnei): 0.5 µg/mL (≈ 1.37 µM); MIC (strain #27 Shigella flexneri): 0.5 µg/mL (≈ 1.37 µM); MIC [15]: 1 µg/mL (≈ 2.74 µM); MIC [16]: 16 µg/mL (≈ 43.8 µM); MIC [17]: 16 µg/mL (≈ 43.8 µM); MIC [18]: 4 µg/mL (≈ 10.9 µM); MIC [19]: 16 µg/mL (≈ 43.8 µM); MIC [20]: 16 µg/mL (≈ 43.8 µM); MIC [21]: 16 µg/mL (≈ 43.8 µM); MIC [22]: > 32 µg/mL; MIC [23]: > 32 µg/mL |
| CNC(=O)[C@H]1CCN(CC2=C(C(=O)O)N3C(=O)C([C@@H](C)O)C3[C@H]2C)C1 (stereo partly shown) [Compound 127] | 1 (≈ 2.85 µM) | 1 (≈ 2.85 µM) | 4 (≈ 11.4 µM) | 2 (≈ 5.69 µM) | 0.5 (≈ 1.42 µM) | 0.5 (≈ 1.42 µM) | 2 (≈ 5.69 µM) | 0.5 (≈ 1.42 µM) | 1 (≈ 2.85 µM) | 0.5 (≈ 1.42 µM) | 0.5 (≈ 1.42 µM) | 0.5 (≈ 1.42 µM) | 0.5 (≈ 1.42 µM) | 1 (≈ 2.85 µM) | 1 (≈ 2.85 µM) | ≤ 0.008 | 4 (≈ 11.4 µM) | 4 (≈ 11.4 µM) | 2 (≈ 5.69 µM) | 0.5 (≈ 1.42 µM) | MIC [12]: 2 µg/mL (≈ 5.69 µM); MIC [13]: 0.5 µg/mL (≈ 1.42 µM); MIC (strain #23 Serratia marcescens): 1 µg/mL (≈ 2.85 µM); MIC (strain #24 Serratia marcescens): 2 µg/mL (≈ 5.69 µM); MIC [14]: 1 µg/mL (≈ 2.85 µM); MIC (strain #26 Shigella sonnei): 0.5 µg/mL (≈ 1.42 µM); MIC (strain #27 Shigella flexneri): 0.5 µg/mL (≈ 1.42 µM); MIC [15]: 0.5 µg/mL (≈ 1.42 µM); MIC [16]: 8 µg/mL (≈ 22.8 µM); MIC [17]: 8 µg/mL (≈ 22.8 µM); MIC [18]: 2 µg/mL (≈ 5.69 µM); MIC [19]: 8 µg/mL (≈ 22.8 µM); MIC [20]: 8 µg/mL (≈ 22.8 µM); MIC [21]: 8 µg/mL (≈ 22.8 µM); MIC [22]: 16 µg/mL (≈ 45.5 µM); MIC [23]: > 32 µg/mL |
| C[C@@H](O)C1C(=O)N2C(C(=O)O)=C(CN3CC[C@H](C(=O)NS(C)(=O)=O)C3)[C@H](C)C12 (stereo partly shown) [Compound 132] | 4 (≈ 9.63 µM) | 16 (≈ 38.5 µM) | 16 (≈ 38.5 µM) | 32 (≈ 77 µM) | 0.25 (≈ 0.602 µM) | 0.25 (≈ 0.602 µM) | 1 (≈ 2.41 µM) | 0.25 (≈ 0.602 µM) | 0.5 (≈ 1.2 µM) | 0.25 (≈ 0.602 µM) | 0.25 (≈ 0.602 µM) | 0.25 (≈ 0.602 µM) | 0.25 (≈ 0.602 µM) | 0.5 (≈ 1.2 µM) | 0.5 (≈ 1.2 µM) | 0.016 (≈ 0.0385 µM) | 4 (≈ 9.63 µM) | 4 (≈ 9.63 µM) | 1 (≈ 2.41 µM) | 0.25 (≈ 0.602 µM) | MIC [12]: 1 µg/mL (≈ 2.41 µM); MIC [13]: 0.25 µg/mL (≈ 0.602 µM); MIC (strain #23 Serratia marcescens): 0.5 µg/mL (≈ 1.2 µM); MIC (strain #24 Serratia marcescens): 1 µg/mL (≈ 2.41 µM); MIC [14]: 0.25 µg/mL (≈ 0.602 µM); MIC (strain #26 Shigella sonnei): 0.25 µg/mL (≈ 0.602 µM); MIC (strain #27 Shigella flexneri): 0.13 µg/mL (≈ 0.313 µM); MIC [15]: 2 µg/mL (≈ 4.81 µM) |
